The record followed here is ChEMBL document CHEMBL1153574, “Novel topoisomerase I-targeting antitumor agents synthesized from the N,N,N-trimethylammonium derivative of ARC-111, 5H-2,3-dimethoxy-8,9-methylenedioxy-5-[(2-N,N,N-trimethylammonium)ethyl]dibenzo[c,h][1,6]naphthyridin-6-one iodide” (Eur J Med Chem, 2009).

Bounds are passed on as bounds.

Experiment [1] in a line: Cytotoxicity against mouse P388/CPT45 cells after 4 days by MTT assay. Type of experiment: functional, cell-based. Particulars: P388CPT45, 96 h.
Experiment [2] in a line: Cytotoxicity against human RPMI8402 cells after 4 days by MTT assay. Type of experiment: functional, cell-based. Particulars: RPMI 8402, 96 h. On the technique in general: Tetrazolium assays rely on reduction of a dye to a coloured formazan, in cell work by metabolically active cells.
Experiment [3] in a line: Cytotoxicity against human CPT-K5 cells after 4 days by MTT assay. The class given is functional, cell-based. The conditions noted are these: CPT-K5, 96 h.
A further experiment relates to P388. Put plainly: Cytotoxicity against mouse P388 cells after 4 days by MTT assay. The class given is functional, cell-based. The conditions noted are these: P388, 96 h.
A short description of experiment [4]: Cytotoxicity against multidrug resistant human KBV1 cells overexpressing MDR1 after 4 days by MTT assay. The class given is functional, cell-based. The conditions noted are these: KB-V1, 96 h.
Experiment [5] in a line: Cytotoxicity against human KB3-1 cells after 4 days after MTT assay. The class given is functional, cell-based. Particulars: KB 3-1, 96 h.
The target of experiment [6] is T1, DNA topoisomerase 1 (Homo sapiens) (UniProt P11387).
T1 sequence (whole entry): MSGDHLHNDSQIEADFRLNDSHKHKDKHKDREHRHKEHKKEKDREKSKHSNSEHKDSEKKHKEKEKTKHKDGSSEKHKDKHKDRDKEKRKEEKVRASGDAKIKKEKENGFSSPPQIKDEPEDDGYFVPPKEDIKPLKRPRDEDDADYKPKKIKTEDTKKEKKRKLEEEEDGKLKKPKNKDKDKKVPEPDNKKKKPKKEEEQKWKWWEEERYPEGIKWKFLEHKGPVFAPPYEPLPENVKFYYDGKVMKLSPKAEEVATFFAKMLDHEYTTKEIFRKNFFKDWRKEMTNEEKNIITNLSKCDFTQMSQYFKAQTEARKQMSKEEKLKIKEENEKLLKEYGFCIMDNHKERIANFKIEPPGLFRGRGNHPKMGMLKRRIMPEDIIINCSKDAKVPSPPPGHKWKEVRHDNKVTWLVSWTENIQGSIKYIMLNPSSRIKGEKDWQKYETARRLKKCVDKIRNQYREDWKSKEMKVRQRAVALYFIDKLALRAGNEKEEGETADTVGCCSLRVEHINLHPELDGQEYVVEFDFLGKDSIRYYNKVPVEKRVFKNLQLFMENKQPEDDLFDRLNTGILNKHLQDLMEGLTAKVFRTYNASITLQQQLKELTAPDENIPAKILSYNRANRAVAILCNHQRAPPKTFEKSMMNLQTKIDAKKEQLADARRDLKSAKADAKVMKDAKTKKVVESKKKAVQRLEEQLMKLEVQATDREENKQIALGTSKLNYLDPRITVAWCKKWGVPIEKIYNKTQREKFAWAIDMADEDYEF
Put plainly: Effect on human topoisomerase 1 expressed in Sf9 insect cells assessed as effective concentration required for 10% cleavage of plasmid DNA relative to topotecan.

The nature of experiment [7]: Cytotoxicity against multidrug resistant human KBH5.0 cells overexpressing BCRP after 4 days by MTT assay. The class given is functional, cell-based. Particulars: KBH5.0 cell, 96 h.

With `COc1cc2c(=O)n(CCNC3CC3)c3c4cc5c(cc4ncc3c2cc1OC)OCO5`, the IC50 amounted to 110 nM in experiment [1]; 10 nM in experiment [2]; 300 nM in experiment [3]; 9 nM in the experiment with P388; 40 nM in experiment [4]; 4 nM in experiment [5]. In experiment [7], this molecule returned an IC50 of 8 nM. In addition, the Activity in experiment [6] came out at 0.3.

For the molecule `CCN(CC)CCNCCn1c(=O)c2cc(OC)c(OC)cc2c2cnc3cc4c(cc3c21)OCO4`, the IC50 in experiment [1] worked out at 350 nM; in experiment [2], 150 nM; in experiment [3], 9000 nM; with P388, 230 nM; in experiment [4], 1200 nM; in experiment [5], 40 nM. Also, in experiment [7], the midpoint of inhibition, the IC50, lay at 300 nM. The Activity in experiment [6] turned out to be 5.2.

Turning to `COc1cc2c(=O)n(CCN(CCO)CCO)c3c4cc5c(cc4ncc3c2cc1OC)OCO5`, the IC50 in experiment [1] was 250 nM; in experiment [2], 40 nM; in experiment [3] it was 320 nM; in the experiment on P388, 30 nM; in experiment [4], 350 nM; in experiment [5], 23 nM. The 50% inhibitory concentration (IC50) in experiment [7] was found to be 280 nM. Besides, in experiment [6], the Activity was 0.48.

Turning to `COc1cc2c(=O)n(CCN(C)C)c3c4cc5c(cc4ncc3c2cc1OC)OCO5`, the IC50 in experiment [4] and in experiment [5] was 5 nM in each case. The Activity in experiment [6] was 0.3.

On to `COc1cc2c(=O)n(CCNC(CO)CO)c3c4cc5c(cc4ncc3c2cc1OC)OCO5`, for which the IC50 in experiment [2] is 54 nM; in experiment [3] it was over 10000 nM; in the experiment with P388 it was 80 nM; in experiment [4], 2000 nM; in experiment [5], 26 nM; in experiment [7], 750 nM. The Activity in experiment [6] worked out at 0.2.

As for `COc1cc2c(=O)n(CCNCCN(C)C)c3c4cc5c(cc4ncc3c2cc1OC)OCO5`, the IC50 in experiment [1] amounted to 340 nM; in experiment [2], 140 nM; in experiment [3], 2600 nM; in the experiment with P388, 75 nM; in experiment [4], 3400 nM; in experiment [5], 60 nM. The same molecule registered an IC50 in experiment [7] of 750 nM. In addition, the Activity in experiment [6] came to 6.4.

Turning to `COc1cc2c(=O)n(CCO)c3c4cc5c(cc4ncc3c2cc1OC)OCO5`, the IC50 is 900 nM in experiment [1]; 30 nM in experiment [2]; over 10000 nM in experiment [3]; 30 nM in the experiment with P388; 40 nM in experiment [4]; 27 nM in experiment [5]. In experiment [7], this molecule registered an IC50 of 40 nM. Further, the Activity in experiment [6] was 4.7.

On to `COc1cc2c(=O)n(CCNC(CO)(CO)CO)c3c4cc5c(cc4ncc3c2cc1OC)OCO5`, for which the IC50 in experiment [1] came out at 3500 nM; in experiment [2] it was 330 nM; in experiment [3], 7000 nM; in the experiment with P388, 330 nM; in experiment [4] it was 1800 nM; in experiment [5] it was 250 nM. In experiment [7], this molecule came in with an IC50 of 1800 nM. The Activity in experiment [6] is 2.

For the molecule `COc1cc2c(=O)n(CCOC(=O)CN(C)C)c3c4cc5c(cc4ncc3c2cc1OC)OCO5`, the IC50 in experiment [1] was found to be 390 nM; in experiment [2], 30 nM; in experiment [3], 4600 nM; in the experiment with P388, 27 nM; in experiment [4], 35 nM; in experiment [5], 32 nM. Also, it took 50 nM to reach half-maximal inhibition in experiment [7] (IC50). The Activity in experiment [6] came to 0.3.

On to `COc1cc2c(=O)n(CCn3ccnc3)c3c4cc5c(cc4ncc3c2cc1OC)OCO5`, for which the IC50 was over 10000 nM in experiment [1]; 210 nM in experiment [2]; over 10000 nM in experiment [3]; 200 nM in the experiment with P388; 1800 nM in experiment [4]; 150 nM in experiment [5]. Also, half-maximal inhibition in experiment [7] (IC50) required 580 nM. In experiment [6], the Activity came out at 2.3.

Consider `COc1cc2c(=O)n(CCN(C)CCN(C)C)c3c4cc5c(cc4ncc3c2cc1OC)OCO5`, for which the IC50 in experiment [1] came to 70 nM; in experiment [2], 45 nM; in experiment [3], 2200 nM; in the experiment with P388, 35 nM; in experiment [4], 600 nM; in experiment [5], 50 nM. Besides, the IC50 in experiment [7] came out at 210 nM. For the same molecule, the Activity in experiment [6] came to 0.7.

As for `COc1cc2c(=O)n(CCn3ccnn3)c3c4cc5c(cc4ncc3c2cc1OC)OCO5`, the IC50 in experiment [1] was over 10000 nM; in experiment [2] it was 3500 nM; in experiment [3], over 10000 nM; in the experiment with P388, 4400 nM; in experiment [4] it was 10000 nM; in experiment [5] it was 700 nM. In experiment [7], this molecule gave an IC50 of 6000 nM. Moreover, in experiment [6], the Activity was over 10.

`CC[C@@]1(O)C(=O)OCc2c1cc1n(c2=O)Cc2cc3ccccc3nc2-1`: the Activity in experiment [6] turned out to be 0.2.

With `COc1cc2c(=O)n(CCN(C)CCO)c3c4cc5c(cc4ncc3c2cc1OC)OCO5`, the IC50 in experiment [1] was found to be 330 nM; in experiment [2], 15 nM; in experiment [3], 580 nM; in the experiment on P388, 12 nM; in experiment [4], 60 nM; in experiment [5], 6 nM. This molecule also displayed an IC50 in experiment [7] of 50 nM. Further, the Activity in experiment [6] turned out to be 0.04.

One may read the IC50 as the concentration that gives 50% inhibition. Higher therefore signals a need for much substance.
